According to patent publication US20250360235A1, “RADI[…] AND METHOD FOR RADIOLABELLING” (Telix Innovations SA, priority 2024, published 2025):

Test: Radiochemical purity by iTLC over time after radiolabelling
Assay type: physicochemical
Description: Table 1 to Table 5 show the results of various radiolabelling experiments on radiochemical purity and the chelation yield. The radiolabelling experiments in the tables are carried out as described in: • Example 1 for when the gallium-68 source is GE Liquid target generator and EZAG GalliaPharm generator; • Example 2 for when the gallium-68 source is IRE Galli Eo generator; • Example 3 for when the gallium-68 source is GE solid target generator;
However, the experiments were carried out with the amount of ascorbic acid as indicated in the Tables 1 to 5, and the activity as indicated in the Tables 1 to 5. Radiochemical purities were measured at various times (T0, T1, T4, T6) after the radiolabelled experiments have been conducted.
The kits of Example 1, Example 2 or Example 3, with amounts of ascorbic acid as set out in Table 7 were used in the experiments for the ascorbic acid bracketing matrix. Three strengths of [^68Ga]Ga-PSMA-11 will be tested, i.e. 50 mCi/ml, 7 mCi/ml and 1 mCi/ml. Radiochemical purity was determined at different time points (TO, T1, T4 or T6), as set out in Table 7.

[1] = 15 mg ascorbic acid, 10.0-18.4 mCi, 0.95-1.77 mCi/mL, 1 × EZAG GalliaPharm, 2 × IRE Galli Eo, average of 3, T1 (1 h)
[2] = 15 mg ascorbic acid, 10.0-18.4 mCi, 0.95-1.77 mCi/mL, 1 × EZAG GalliaPharm, 2 × IRE Galli Eo, n=3, T0
[3] = 15 mg ascorbic acid, 10.0-18.4 mCi, 0.95-1.77 mCi/mL, 1 × EZAG GalliaPharm, 2 × IRE Galli Eo, n=3, T1 (1 h)
[4] = 15 mg ascorbic acid, 23.7-47.6 mCi, 2.26-4.53 mCi/mL, 1 × EZAG GalliaPharm, 2 × IRE Galli Eo, average of 3, T0
[5] = 15 mg ascorbic acid, 23.7-47.6 mCi, 2.26-4.53 mCi/mL, 1 × EZAG GalliaPharm, 2 × IRE Galli Eo, average of 3, T4 (4 h)
[6] = 15 mg ascorbic acid, 23.7-47.6 mCi, 2.26-4.53 mCi/mL, 1 × EZAG GalliaPharm, 2 × IRE Galli Eo, n=3, T0
[7] = 15 mg ascorbic acid, 23.7-47.6 mCi, 2.26-4.53 mCi/mL, 1 × EZAG GalliaPharm, 2 × IRE Galli Eo, n=3, T4 (4 h)
[8] = 20 mg ascorbic acid, 514-544 mCi, 48.3-51.9 mCi/mL, GE Solid Target, average of 2, T0
[9] = 20 mg ascorbic acid, 514-544 mCi, 48.3-51.9 mCi/mL, GE Solid Target, average of 2, T6 (6 h)
[10] = 20 mg ascorbic acid, 514-544 mCi, 48.3-51.9 mCi/mL, GE Solid Target, n=2, T0
[11] = 20 mg ascorbic acid, 514-544 mCi, 48.3-51.9 mCi/mL, GE Solid Target, n=2, T6 (6 h)
[12] = 25 mg ascorbic acid, 19.5-20.0 mCi, 1.85-1.90 mCi/mL, EZAG GalliaPharm, average of 2, T0
[13] = 25 mg ascorbic acid, 19.5-20.0 mCi, 1.85-1.90 mCi/mL, EZAG GalliaPharm, average of 2, T1 (1 h)
[14] = 25 mg ascorbic acid, 19.5-20.0 mCi, 1.85-1.90 mCi/mL, EZAG GalliaPharm, n=2, T0
[15] = 25 mg ascorbic acid, 19.5-20.0 mCi, 1.85-1.90 mCi/mL, EZAG GalliaPharm, n=2, T1 (1 h)
[16] = 25 mg ascorbic acid, 23.3-24 mCi, 2.22-2.28 mCi/mL, IRE Galli Eo, average of 2, T0
[17] = 25 mg ascorbic acid, 23.3-24 mCi, 2.22-2.28 mCi/mL, IRE Galli Eo, average of 2, T4 (4 h)
[18] = 25 mg ascorbic acid, 23.3-24 mCi, 2.22-2.28 mCi/mL, IRE Galli Eo, n=2, T0
[19] = 25 mg ascorbic acid, 23.3-24 mCi, 2.22-2.28 mCi/mL, IRE Galli Eo, n=2, T4 (4 h)
[20] = 25 mg ascorbic acid, 46.0-46.1 mCi, 4.38-4.39 mCi/mL, EZAG GalliaPharm, average of 2, T0

## O=C([O-])CN(CCN(CC(=O)[O-])Cc1cc(CCC(=O)NCCCCCC(=O)NCCCC[C@H](NC(=O)N[C@@H](CCC(=O)O)C(=O)O)C(=O)O)ccc1[O-])Cc1cc(CCC(=O)O)ccc1[O-].[68Ga+3].[OH3+] [[^68Ga]PSMA-11, gallium-68 radiolabelled Glu-urea-Lys-HBED-CC (gozetotide or PSMA-11)]
15 mg ascorbic acid, 10.0-18.4 mCi, 0.95-1.77 mCi/mL, 1 × EZAG GalliaPharm, 2 × IRE Galli Eo, average of 3, T0
  Radiochemical Purity (iTLC) Ga-68 PSMA-11 (%): 100%
[1]
  Radiochemical Purity (iTLC) Free and Colloidal Ga-68 (%): 0%
  Radiochemical Purity (iTLC) Ga-68 PSMA-11 (%): 100%
[2]
  Radiochemical Purity (iTLC) Free and Colloidal Ga-68 (%): C (C = conforms to specifications)
  Radiochemical Purity (iTLC) Ga-68 PSMA-11 (%): C (C = conforms to specifications)
[3]
  Radiochemical Purity (iTLC) Free and Colloidal Ga-68 (%): C (C = conforms to specifications)
  Radiochemical Purity (iTLC) Ga-68 PSMA-11 (%): C (C = conforms to specifications)
[4]
  Radiochemical Purity (iTLC) Free and Colloidal Ga-68 (%): 0%
  Radiochemical Purity (iTLC) Ga-68 PSMA-11 (%): 100%
[5]
  Radiochemical Purity (iTLC) Free and Colloidal Ga-68 (%): 0%
  Radiochemical Purity (iTLC) Ga-68 PSMA-11 (%): 100%
[6]
  Radiochemical Purity (iTLC) Free and Colloidal Ga-68 (%): C (C = conforms to specifications)
  Radiochemical Purity (iTLC) Ga-68 PSMA-11 (%): C (C = conforms to specifications)
[7]
  Radiochemical Purity (iTLC) Free and Colloidal Ga-68 (%): C (C = conforms to specifications)
  Radiochemical Purity (iTLC) Ga-68 PSMA-11 (%): C (C = conforms to specifications)
[8]
  Radiochemical Purity (iTLC) Free and Colloidal Ga-68 (%): 3%
  Radiochemical Purity (iTLC) Ga-68 PSMA-11 (%): 97%
[9]
  Radiochemical Purity (iTLC) Free and Colloidal Ga-68 (%): 2%
  Radiochemical Purity (iTLC) Ga-68 PSMA-11 (%): 98%
[10]
  Radiochemical Purity (iTLC) Free and Colloidal Ga-68 (%): C (C = conforms to specifications)
  Radiochemical Purity (iTLC) Ga-68 PSMA-11 (%): C (C = conforms to specifications)
[11]
  Radiochemical Purity (iTLC) Free and Colloidal Ga-68 (%): C (C = conforms to specifications)
  Radiochemical Purity (iTLC) Ga-68 PSMA-11 (%): C (C = conforms to specifications)
[12]
  Radiochemical Purity (iTLC) Free and Colloidal Ga-68 (%): 2%
  Radiochemical Purity (iTLC) Ga-68 PSMA-11 (%): 98%
[13]
  Radiochemical Purity (iTLC) Free and Colloidal Ga-68 (%): 0%
  Radiochemical Purity (iTLC) Ga-68 PSMA-11 (%): 100%
[14]
  Radiochemical Purity (iTLC) Free and Colloidal Ga-68 (%): C (C = all results conform to specifications)
  Radiochemical Purity (iTLC) Ga-68 PSMA-11 (%): C (C = all results conform to specifications)
[15]
  Radiochemical Purity (iTLC) Free and Colloidal Ga-68 (%): C (C = all results conform to specifications)
  Radiochemical Purity (iTLC) Ga-68 PSMA-11 (%): C (C = all results conform to specifications)
[16]
  Radiochemical Purity (iTLC) Free and Colloidal Ga-68 (%): 1%
  Radiochemical Purity (iTLC) Ga-68 PSMA-11 (%): 99%
[17]
  Radiochemical Purity (iTLC) Free and Colloidal Ga-68 (%): 0%
  Radiochemical Purity (iTLC) Ga-68 PSMA-11 (%): 100%
[18]
  Radiochemical Purity (iTLC) Free and Colloidal Ga-68 (%): C (C = all results conform to specifications)
  Radiochemical Purity (iTLC) Ga-68 PSMA-11 (%): C (C = all results conform to specifications)
[19]
  Radiochemical Purity (iTLC) Free and Colloidal Ga-68 (%): C (C = all results conform to specifications)
  Radiochemical Purity (iTLC) Ga-68 PSMA-11 (%): C (C = all results conform to specifications)
[20]
  Radiochemical Purity (iTLC) Free and Colloidal Ga-68 (%): 0%
  Radiochemical Purity (iTLC) Ga-68 PSMA-11 (%): 100%
